Data as given in patent US6087361A, “Aryl-imidazolines and aryl-imidazoles useful as α-2 adrenergic agonists without cardiovascular side effects” (Allergan Sales, Inc., priority 1997, dated 2000).
pKi: −log10 of the molar value.

Columns and labels:
[1] = target: T1, human α2A (Homo sapiens, UniProt P08913); assay: Receptor binding, [3H]rauwolscine, CHO-C10 cells expressing human α2A; settings: CHO-C10, 22° C., 30 min
T1 construct: expressed in transfected cells; host or cells: CHO cells (CHO-C10)
T1 sequence (P08913 1-465): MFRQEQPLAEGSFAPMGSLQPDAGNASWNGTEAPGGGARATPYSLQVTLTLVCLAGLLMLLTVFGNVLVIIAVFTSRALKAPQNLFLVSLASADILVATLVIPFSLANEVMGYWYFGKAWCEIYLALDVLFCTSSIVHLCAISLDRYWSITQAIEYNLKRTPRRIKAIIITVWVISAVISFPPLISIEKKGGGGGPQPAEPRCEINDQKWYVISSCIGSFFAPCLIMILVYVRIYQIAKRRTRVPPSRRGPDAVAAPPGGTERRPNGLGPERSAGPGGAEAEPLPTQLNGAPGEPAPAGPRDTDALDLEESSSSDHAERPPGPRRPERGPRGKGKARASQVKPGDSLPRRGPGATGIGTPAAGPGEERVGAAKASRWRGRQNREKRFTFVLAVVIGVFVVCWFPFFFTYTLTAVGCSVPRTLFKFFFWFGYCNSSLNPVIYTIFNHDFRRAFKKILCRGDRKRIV
Procedure: Cell preparation: Chinese hamster ovary (CHO) cells expressing the human α2A and human α2C (CHO-C10 and CHO-C4 respectively) receptors and CHO cells (CHO-RNG) expressing the rat α2B, adrenoceptor were grown to near confluence in Dulbecco's modified Eagle's medium supplemented with 10% fetal bovine serum using standard cell culture methods. Cells were harvested by scraping and placed into cold buffer of the following composition: 50 mM Tris-HCl, 5 mM EDTA, pH 7.4). […] The pellet fraction was washed (resuspended in Tris-HCl, pH 8 buffer and centrifuged for 15-20 minutes at 49,000× g) 2 times and stored at -100° until binding assay.
Binding Studies: The radioligands [^3 H]rauwolscine (specific activity 80 Ci/mmol) and [^3 H]prazosin (specific activity 76 Ci/mmol) were obtained from New England Nuclear, Boston, Mass. Frozen membrane pellet was resuspended in 25 mM glycine/glycine, pH 7.5 and incubated with radioligand under the following conditions: CHO-C10, CHO-RNG, CHO-C4-[^3 H]rauwolscine, 22° C., 30 minutes; RKC-[^3 H]rauwolscine, 0° C., 120 minutes; and, HCC-[^3 H]prazosin, 22° C., 30 minutes in a final volume of 500 ul. At the end of the incubation period, the samples were filtered through glass filters (Whatman GF/B) in a 96 well cell harvester and rapidly washed four times with 4 mL of iced-cold 50 mM Tris-HCl buffer. The filters were then oven dried and transferred to scintillation vials containing 10 mL of Beckman's Ready Protein® scintillation cocktail for counting. […] Protein concentrations were determined with a protein assay kit from Bio Rad. Binding isotherms, equilibrium dissociation and affinity constants were analyzed and determined by the non-linear least squares curve fitting programs EBDA (BioSoft) or AccuFit Competition/Saturation by Beckman.
Cell Preparation: Chinese hamster ovary (CHO) cells expressing the human α2A (CHO-C10) and the rate α2B (CHO-RNG) […] were grown to near confluence in Dulbecco's modified Eagle's medium supplemented with 10% fetal bovine serum using standard cell culture methods. Cells were harvested by scraping and placed into cold buffer of the following composition: 50 mM Tris-HCl, 5 mM EDTA, pH 7.4). […] The pellet fraction was washed (resuspended in Tris-HCl, pH 8 buffer and centrifuged for 15-20 minutes at 49,000× g) 2 times and stored at […] until binding assay.
The radioligands [^3 H] rauwolscine (specific activity 80 Ci/mmol) and [^3 H] prazosin (specific activity 76 Ci/mmol) were obtained from New England Nuclear, Boston, Mass. Frozen membrane pellet was resuspended in 25 mM glycine/glycine, pH 7.4 and incubated with radioligand under the following conditions: CHO-C10, CHO-RNG, CHO-C4-[^3 H]rauwolscine, 22° C., 30 min.; and, HCC-[^3 H]prazowsin, 22° C., 30 minutes in a final volume of 500 ul. At the end of the incubation period, the samples were filtered through glass fiber filters (Whatman GF/B) in a 96 well cell harvester and rapidly washed four times which 4 mL of iced-cold 50 mM Tris-CHI buffer. The filters were then oven dried and transferred to scintillation vials containing 5 mL of Beckman's Ready Protein® scintillation cocktail for counting. […] Protein concentrations were determined with a protein assay kit from Bio lad. Binding isotherms, equilibrium dissociation and affinity constants were analyzed and determined by the non-linear least squares curve fitting programs AccuFit Competition/Saturation by Beckman.
Representative compounds of the present invention were tested according to the procedures given above. […] The receptor binding studies and K1 are measures of the affinity of a compound for a particular receptor.

[2] = target: I2B; assay: Receptor binding, I2B

Row | pKi [1] | pKi [2] | SMILES
1 | 8.02 | 5.00 | Cc1c(NC2=NCCN2)ccc2c1NCCN2 [Example 8]
2 | 7.77 | – | Cc1c(NC2=NCCN2)ccc2c1NC(=O)CO2 [Example 15]
3 | 7.46 | 5.00 | c1cc2c(cc1NC1=NCCN1)NCCN2 [Example 7]
4 | 8.54 | 4.41 | Nc1cc(Cl)c(NC2=NCCN2)c(Cl)c1 [Example 3]
5 | 7.52 | – | Cc1c(O)cccc1Nc1ncc[nH]1 [Example 20]
6 | 8.31 | 6.06 | COc1c(C(C)(C)C)cc(C)c(Nc2ncc[nH]2)c1C [Example 22]
7 | 7.28 | 7.89 | Cc1cccc(Nc2ncc[nH]2)c1C [Example 18]
8 | 7.28 | 5.19 | O=C1COc2ccc(NC3=NCCN3)cc2N1 [Example 14]
9 | 7.62 | 5.49 | CC1CNc2c(ccc(NC3=NCCN3)c2Br)N1 (centres unmarked) [Example 10]
10 | 8.92 | 4.92 | Cc1c(NC2=NCCN2)ccc2c1NCCO2 [Example 16]
11 | 8.21 | 5.34 | Brc1c(NC2=NCCN2)ccc2c1NCCN2 [Example 9]

Row | SMILES | pKi [1] | pKi [2]
12 | Cc1ccccc1NC1=NCCN1 [Example 1] | 8.05 | –
13 | Cc1c(NC2=NCCN2)ccc2c1OCCO2 [Example 13] | 9.60 | 5.91
14 | c1cc2c(cc1NC1=NCCN1)OCCO2 [Example 11] | – | 5.69
15 | COc1ccc(NC2=NCCN2)c(C)c1OC [Example 12] | 8.28 | 6.29
